Laboratory results published in PMC11188199, “Development and validation of a generic methyltransferase enzymatic assay based on an SAH riboswitch” (SLAS discovery : advancing life sciences R & D, 2024).
pEC50, pIC50, pKd, pKi: −log10 of the molar value.

Columns and labels:
nsp14 [1] = target: T1, nsp14 (Severe acute respiratory syndrome coronavirus 2, UniProt P0DTD1)
PRMT5 [2] = test system: PRMT5; set-up: method as in PMID 25915199; settings: read-out: IC50 (published value); cited from earlier work
PRMT5 [3] = target: PRMT5; set-up: method as in PMID 34583982; settings: RapidFire MS SAH detection; read-out: kiApp; cited from earlier work
[4] = test system: split Dar-1 riboswitch (Dar1 P1/P2); assay: Split aptamer SAH assay with FP readout; format: binding, D. aromatica
Source text: Based on a literature review and preliminary testing, an SAH riboswitch from D. aromatica (Dar-1) was chosen for development of a split aptamer-based assay. […] We tested these configurations with a far red fluor on the shorter P2 element, allowing FP-based detection (Fig. 1A). […] Generally, a shift of at least 100 mP @ ≤ 10 % substrate conversion is desirable for HTS. It is likely that the FP signal is limited by the relatively modest difference in size between the free P2 RNA and the liganded P1–P2 complex. In this regard, attachment of one half of a split DNA aptamer to a silver nanoparticle produced a lactoferrin sensor with a signal greater than 100 mP [32]; to our knowledge, this is the only other example of a split aptamer-based assay with an FP readout. Attempts to use a similar approach by attaching Streptavidin to the P1 oligomer were not successful (data not shown).
Fig. 1. Split aptamer SAH assay with FP readout. A. SAH dependent assembly of split aptamer (Dar1 P1/P2) causes increase in polarization of a fluor attached to the P2 element. B. SAH titration, showing concentration dependence and stability of signal. C. Comparison of response to SAH, SAM and ATP. D. Standard curve mimicking enzymatic conversion of 200 nM SAM to SAH. E. Titration of PRMT3 in the presence of 500 nM SAM and Histone H4 peptide substrate. […]

Dar-1 split aptamer = assay: Split aptamer SAH assay with TR-FRET readout (AptaFluor), equilibrium binding; set-up: species or system D. aromatica; settings: for pEC50: n = 3, plates read at 3 hr
SAH riboswitches = target: SAH riboswitches; set-up: method as in PMID 18374645; settings: native SAH riboswitch; cited from earlier work
METTL3/METTL14 = settings: cited from earlier work
nsp14 [5] = target: T1, nsp14; settings: read-out: SAM Km; cited from earlier work
[6] = test system: C[S+](CC[C@H](N)C(=O)[O-])C[C@H]1O[C@@H](n2cnc3c(N)ncnc32)[C@H](O)[C@@H]1O; assay: purified protein, by the assay type; settings: other: data not shown

Compound: CC1(C)C(=O)N=C2C1=C(O)C(=O)c1ccccc12 [BVT-948]
- inhibition of nsp14 enzymatic activity in dose response mode (nsp14 [1]): dose-dependent response

Compound: O=C(NC[C@H](O)CN1CCc2ccccc2C1)c1ccnc(NC2CCC2)c1 [GSK591]
- pIC50 (PRMT5 [2]): 7.66

Compound: Nc1nc2cc(CC[C@H]3C[C@@H](n4ccc5c(N)ncnc54)[C@H](O)[C@@H]3O)ccc2cc1Br [JNJ64619178]
- pKi (PRMT5 [3]): 9.11

Compound: O=C1C(Cl)=C(NCCN2CCOCC2)C(=O)c2ncccc21 [NSC-663284]
- inhibition of nsp14 enzymatic activity in dose response mode (nsp14 [1]): dose-dependent response

Compound: Nc1ncnc2c1ncn2[C@@H]1O[C@H](CSCC[C@H](N)C(=O)O)[C@@H](O)[C@H]1O [SAH, S-adenosylhomocysteine]
- selectivity vs. SAM [4]: greater than 200 fold
- pKd ([4]; split aptamer construct): 7.66
- observed selectivity (SAH vs SAM) (Dar-1 split aptamer; highly purified preparation of SAM): more than 1000 fold
- pEC50 (Dar-1 split aptamer): 7.70
- pKd (SAH riboswitches): 7.70

Compound: C[S+](CC[C@H](N)C(=O)[O-])C[C@H]1O[C@@H](n2cnc3c(N)ncnc32)[C@H](O)[C@@H]1O (stereo partly shown) [SAM, S-adenosylmethionine]
- pEC50 (Dar-1 split aptamer): 4.64
- affinity fold lower than for SAH (SAH riboswitches): at least 1000 fold
- Km (METTL3/METTL14; ssRNA substrate similar to the 28mer, read-out: SAM Km): ~200 nM
- Km (nsp14 [5]): 257 nM

Compound: CNc1cc(N2CCC3(CC2)CN(c2cc(F)c(CN4CCC(C)(C)CC4)cc2F)CC(=O)N3)ncn1 [UZH2, reference compound]
- pIC50 (METTL3/METTL14; read-out: IC50 (published value)): 8.30

Compound: Nc1ncnc2c1ncn2[C@@H]1O[C@H](CO)[C@@H](O)[C@H]1O [adenosine]
- pEC50 (Dar-1 split aptamer): 3.97

Compound: nsp14 (Severe acute respiratory syndrome coronavirus 2)
- Km [6]: 60 nM
